Assay [1] deals with T1, a2B adrenergic receptor (Homo sapiens, UniProt P18089).
T1 construct: expressed in transfected cells; host or cells: HEK293
T1 sequence (P18089 1-450): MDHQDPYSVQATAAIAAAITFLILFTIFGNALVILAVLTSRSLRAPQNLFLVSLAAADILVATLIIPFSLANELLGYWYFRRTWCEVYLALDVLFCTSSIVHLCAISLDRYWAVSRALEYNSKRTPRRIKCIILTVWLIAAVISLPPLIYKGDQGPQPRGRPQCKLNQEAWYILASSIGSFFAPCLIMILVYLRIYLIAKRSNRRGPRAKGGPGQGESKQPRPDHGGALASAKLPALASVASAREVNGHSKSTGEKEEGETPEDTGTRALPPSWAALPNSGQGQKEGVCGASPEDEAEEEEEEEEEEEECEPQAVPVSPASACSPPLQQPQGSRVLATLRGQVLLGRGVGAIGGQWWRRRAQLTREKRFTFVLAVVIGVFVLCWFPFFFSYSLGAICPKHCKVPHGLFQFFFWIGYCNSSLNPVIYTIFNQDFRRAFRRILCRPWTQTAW
Put plainly: TGFα shedding assay in transfected HEK293 cells, noradrenaline stimulation. It counts as cell-based. The conditions noted are these: for IC50: 5 nM Noradrenaline stimulation, HEK293 cells, read-out: IC50, shedding assay, α2B. As to the method: (§1) The TGFα shedding assay is known as an assay by which a signal transduction pathway of a GPCR can be detected and measured (Patent Document 3). When the signal transduction pathway of a GPCR is activated, fusion proteins of membrane-bound alkaline phosphatase (AP) and TGFα are cleaved by TACE (TNFα converting enzyme), which is a membrane protease, and AP-TGFα is released from the cells. This released AP is measured.
(§2) The TGFα shedding assay was performed according to the method disclosed in WO2015/128894A1.
(§3) Specifically, human embryonic kidney HEK293 cells were transfected with a plasmid vector containing the cDNA of alkaline phosphatase (AP) fused TGFα, a plasmid vector containing the cDNA of a fusion protein (Gaq/i) of an N-terminal peptide fragment of Ga protein Gaq and a C-terminal peptide fragment of Ga protein Gai, and a plasmid vector containing the cDNA of a target GPCR, 24 hours later a compound was added and cultured for 30 minutes, a GPCR agonist (5 nM noradrenaline) was added, one hour later half of the culture supernatant was transferred to a new plate to prepare a supernatant plate, and the remaining plate was used as a cell plate. Ap-nitrophenyl phosphate solution was added to each plate and allowed to stand, and when 0 hours and 2 hours had passed, the absorbance at 405 nm was measured using a plate reader.
(§4) The measured value was converted to AP activity (%) according to the method described in WO2015/128894A1, and the obtained value was used as % Shedding.

Another assay has as its target T2, a2C adrenergic receptor (Homo sapiens, UniProt P18825).
T2 construct: expressed in transfected cells; host or cells: HEK293
T2 sequence (P18825 1-462): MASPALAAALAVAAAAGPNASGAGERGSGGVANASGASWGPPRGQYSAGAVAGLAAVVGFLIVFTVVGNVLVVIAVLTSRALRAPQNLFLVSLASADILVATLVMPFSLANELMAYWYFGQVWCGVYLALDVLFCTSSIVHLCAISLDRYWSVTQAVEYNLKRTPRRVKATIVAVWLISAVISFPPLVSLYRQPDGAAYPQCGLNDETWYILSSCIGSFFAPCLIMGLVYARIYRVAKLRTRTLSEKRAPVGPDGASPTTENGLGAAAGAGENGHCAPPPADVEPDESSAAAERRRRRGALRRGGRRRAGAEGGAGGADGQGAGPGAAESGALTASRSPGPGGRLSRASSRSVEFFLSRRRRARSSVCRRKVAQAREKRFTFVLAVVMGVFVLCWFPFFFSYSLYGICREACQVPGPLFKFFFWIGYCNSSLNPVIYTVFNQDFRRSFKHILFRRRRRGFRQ
The description is as above. The class given is cell-based. To be noted: 5 nM Noradrenaline stimulation, read-out: IC50, shedding assay, α2C. As for the experimental part: as §1, §2, §3, §4

The target in assay [2] is T3, a2A adrenergic receptor (Homo sapiens, UniProt P08913).
T3 construct: expressed in transfected cells; host or cells: HEK293
T3 sequence (P08913 1-465): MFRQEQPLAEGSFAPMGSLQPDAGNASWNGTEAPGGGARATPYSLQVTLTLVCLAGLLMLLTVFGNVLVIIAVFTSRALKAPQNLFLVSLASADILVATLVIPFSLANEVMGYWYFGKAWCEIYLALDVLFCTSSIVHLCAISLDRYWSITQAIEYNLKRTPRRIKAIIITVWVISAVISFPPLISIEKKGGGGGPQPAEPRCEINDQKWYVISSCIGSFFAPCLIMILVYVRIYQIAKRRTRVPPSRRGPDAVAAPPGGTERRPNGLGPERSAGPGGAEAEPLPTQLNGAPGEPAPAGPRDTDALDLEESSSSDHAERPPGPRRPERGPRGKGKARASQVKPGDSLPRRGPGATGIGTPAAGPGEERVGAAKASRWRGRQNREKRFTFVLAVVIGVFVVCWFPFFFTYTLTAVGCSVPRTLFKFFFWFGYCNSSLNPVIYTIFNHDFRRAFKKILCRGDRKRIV
The assay is described as above. It counts as cell-based. To be noted: 5 nM Noradrenaline stimulation, read-out: IC50, shedding assay, α2A. As for the experimental part: as §1, §2, §3, §4

Assay [3] deals with T1, a2B adrenergic receptor. As to the kind of experiment: Binding affinity to a2 adrenergic receptors, tritium-labeled rauwolscine tracer. To be noted: tritium-labeled rauwolscine as tracer. As to the method: (§5) [Binding Affinity to a2 Adrenergic Receptors]
(§6) The compound 1 was assayed for its inhibitory activity against a2A adrenergic receptor and a2B adrenergic receptor using rauwolscine with a methyl group labeled with tritium as a tracer, and binding affmity was examined. RauwoLscine is an antagonist that specifically binds to a2 adrenergic receptors.

The target in assay [4] is T3, a2A adrenergic receptor. The assay is described as above. To be noted: tritium-labeled rauwolscine as tracer. As to the method: as §5, §6
For another assay, the target named is T4, a1B adrenergic receptor (Homo sapiens, UniProt P35368).
T4 sequence (P35368 1-520): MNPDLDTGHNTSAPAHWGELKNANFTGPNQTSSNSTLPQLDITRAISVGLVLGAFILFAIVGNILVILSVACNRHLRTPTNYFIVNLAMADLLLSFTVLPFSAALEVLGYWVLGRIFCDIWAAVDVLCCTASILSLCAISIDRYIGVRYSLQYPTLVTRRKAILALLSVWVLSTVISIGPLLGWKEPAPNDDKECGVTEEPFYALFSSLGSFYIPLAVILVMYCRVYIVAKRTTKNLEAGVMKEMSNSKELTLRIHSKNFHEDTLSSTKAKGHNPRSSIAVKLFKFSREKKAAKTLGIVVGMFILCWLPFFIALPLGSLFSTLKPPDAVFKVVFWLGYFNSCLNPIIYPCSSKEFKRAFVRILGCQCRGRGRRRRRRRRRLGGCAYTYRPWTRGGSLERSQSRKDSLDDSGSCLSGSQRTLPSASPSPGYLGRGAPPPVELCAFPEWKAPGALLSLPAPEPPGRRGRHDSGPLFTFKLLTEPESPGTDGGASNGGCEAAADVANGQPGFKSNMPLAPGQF
Put plainly: Binding affinity to a1 adrenergic receptors, tritium-labeled prazosin tracer. The conditions noted are these: tritium-labeled prazosin as tracer. As for the experimental part: (§7) [Binding Affinity to a1 Adrenergic Receptors]
(§8) The compound 1 was assayed for its inhibitory activity against a1A adrenergic receptor and a1B adrenergic receptor using prazosin with a 7-methoxy group labeled with tritium as a tracer, and binding affinity was examined. Prazosin is an antagonist that specifically binds to a1 adrenergic receptors.

A further assay has as its target T5, a1A adrenergic receptor (Homo sapiens, UniProt P35348).
T5 sequence (P35348 1-466): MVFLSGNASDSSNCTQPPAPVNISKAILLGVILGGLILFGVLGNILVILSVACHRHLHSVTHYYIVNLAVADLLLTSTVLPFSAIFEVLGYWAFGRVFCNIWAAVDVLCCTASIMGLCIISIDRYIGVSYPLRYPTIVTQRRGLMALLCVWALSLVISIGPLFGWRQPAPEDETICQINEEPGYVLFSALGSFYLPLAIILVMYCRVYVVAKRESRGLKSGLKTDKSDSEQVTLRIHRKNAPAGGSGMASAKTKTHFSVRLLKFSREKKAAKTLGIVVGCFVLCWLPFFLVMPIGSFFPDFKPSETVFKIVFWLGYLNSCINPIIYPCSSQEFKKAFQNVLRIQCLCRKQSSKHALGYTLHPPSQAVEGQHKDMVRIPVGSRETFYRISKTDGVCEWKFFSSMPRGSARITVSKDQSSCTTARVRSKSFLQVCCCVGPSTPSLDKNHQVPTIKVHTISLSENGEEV
The assay is described as above. To be noted: tritium-labeled prazosin as tracer. As to the method:
as §7, §8

Structures are written as SMILES. Some results are limits rather than exact numbers.

Data on three molecules can be found in patent US20230372309A1, “ALPHA-2 ADRENERGIC RECEPTOR ANTAGONIST” (Kyoto University, priority 2020, published 2023).

Take `CCN1/C(=C/C(C)=O)Sc2ccc(F)cc21` [Compound 1, (1Z)-1-(3-ethyl-5-fluoro-2(3H)-benzothiazolylidene)-2-propanone]: the IC50 was 1.2 µM at a2B adrenergic receptor [1], above 30 µM on a2C adrenergic receptor and above 30 µM on a2A adrenergic receptor [2]. Besides, the “binding affinity (inhibitory activity) to a2B adrenergic receptor compared with a2A and a2C adrenergic receptor” value on a2B adrenergic receptor [1] (shedding assay, Table 1, a2B versus a2A and a2C) is “higher”. For the same molecule, the “binding affinity to a2B adrenergic receptor” value on a2B adrenergic receptor [3] is reported as “exhibited selective binding affinity”. The “binding affinity to a2B adrenergic receptor compared with a2A adrenergic receptor” value on a2B adrenergic receptor [3] (a2B versus a2A) is listed as “higher”. At a2A adrenergic receptor [4], the “binding affinity to a2A adrenergic receptor” value is “exhibited selective binding affinity”. In addition, the “binding affinity to the a1B adrenergic receptor” value at a1B adrenergic receptor is reported as “did not exhibit binding affinity”. For the same molecule, the “binding affinity to the a1A adrenergic receptor” value at a1A adrenergic receptor is given as “did not exhibit binding affinity”.

For `CCN1/C(=C/C(C)=O)Sc2ccc(OC)cc21` [Compound 2], the IC50 at a2B adrenergic receptor [1], at a2C adrenergic receptor and at a2A adrenergic receptor [2] was above 30 µM throughout.

In the case of `CCN1/C(=C/C(C)=O)Sc2cc(OC)ccc21` [Compound 3, (1Z)-1-(3-ethyl-6-methoxy-2(3H)-benzothiazoylidene)-2-propanone], the IC50 at a2B adrenergic receptor [1], on a2C adrenergic receptor and on a2A adrenergic receptor [2] was above 30 µM in each case.

Usually IC50 stands for the midpoint of a concentration-inhibition curve.
